IC50 data for 16 molecules are collected here from patent publication US20250136593A1, “DEGRADATION AGENT AND USE THEREOF” (HITGEN INC., priority 2021, published 2025).

This assay concerns MOLT-4 cells. Briefly: Inhibitory activity on MOLT4 cell proliferation by Cell Titer-Glo method. It counts as cell-based. The note with it: Homo sapiens, 72 hours incubation, read-out: IC50 concentration for inhibiting MOLT-4 cells. As to the method: Experimental Example 5, Evaluation Experiment of Inhibitory Activity of Compound on MOLT4 Cell Proliferation by Cell Titer-Glo Method
RPMI medium modified (Hyclone), FBS (Corning), Dimethyl Sulfoxide, P/S, CellTiter-Gbo Luminescent Cell Viability Assay (Promega), MOLT-4 cell (ATCC).
MOLT-4 cells were cultured in monolayer in vitro in an incubator containing 5% CO2 air at 37° C. The culture medium was RPMI 1640 with 10% FBS and 1% P/S. 15 μL of MOLT4 cells, containing 5×10^4 cells per ml, was inoculated to a 384-well plate (Corning, 3707), 750 cells/well, and incubated at 37° C. and 5% CO2 for 30 minutes. Then the compound that had been diluted in advance was added, with a total of 9 concentration points, and 2 parallel repetitions for each concentration point. The cell growing group without adding the compound was used as a negative control (maximum signal control), and the culture medium group was used as a blank control (minimum signal control). At the same time, it was ensured that the final DMSO content in each reaction well was 0.1%. The compound and the cells were incubated in a cell culture incubator at 37° C., 5% CO2 for 3 days (72 hours).
The 384-well plate was taken out from the cell culture incubator and allowed to stand at room temperature, equilibrated for 20 to 30 minutes, and then 25 μl of Cell Titer-Glo detection reagent was added to each reaction well, lysed on a shaker for 2 minutes, incubated for 10 minutes, and BMG PHERAStar (Luminescence) was used for reading.
The inhibition rate was calculated based on the luminescence signals: the average value of the negative control (maximum signal control) and the blank control (minimum signal control) was first calculated, then the inhibition rates of the compound at different concentrations for the cells were calculated as follows:
The IC50 of the compound to inhibit cell activity was calculated by fitting with GraphPad Prism 6 using log(inhibitor) vs. response−Variable slope mode. The fitting equation was: Y=Bottom+(Top−Bottom)/(1+10^((LogIC50−X)*HillSlope)), wherein Y represented the inhibition rate and X represented the known compound concentration after Log.
(Cellular ATP, detected with luciferase, serves as a proxy for viable cell number.)

SMILES strings stand for the structures.

Turning to `O=C1CCC(N2Cc3c(CCCN4CC(N5CCN(CC#Cc6ccc(/C=C/c7ccc(C(=O)N8CCc9cnc(-c%10cnc%11ccccc%11c%10)nc9C8)cc7)cc6)CC5)C4)cccc3C2=O)C(=O)N1` (stereo not shown) [Compound F2-5], the IC50 is above 200 µM.

For `O=C1CCC(N2Cc3c(C#CCCCCN4CCN(CC#Cc5ccc(/C=C/c6ccc(C(=O)N7CCc8cnc(-c9cnc%10ccccc%10c9)nc8C7)cc6)cc5)CC4)cccc3C2=O)C(=O)N1` (stereo not shown) [Compound D2-5], the IC50 was 100 to 200 µM.

With `CNc1nc(-c2cnc3ccccc3c2)nc2c1CCN(C(=O)c1ccc(/C=C/c3ccc(C#CCN4CCN(C(=O)CCCCCC(=O)N[C@H](C(=O)N5C[C@H](O)C[C@H]5C(=O)NCc5ccc(-c6scnc6C)cc5)C(C)(C)C)CC4)cc3)cc1)C2` [Compound G1-3], the IC50 was above 200 µM.

Take `C=Cc1cc(-c2nc3c(c(NC)n2)CCN(C(=O)c2ccc(COc4ccc(C#CCN5CCN(CCCNc6cccc7c6C(=O)N(C6CCC(=O)NC6=O)C7=O)CC5)cc4)cc2)C3)cnc1C=C` (stereo not shown) [Compound C2-6]: the IC50 fell in the range of 1 to 10 µM.

On to `O=C1CCC(N2Cc3cc(C#CCCCN4CCN(CC#Cc5ccc(/C=C/c6ccc(C(=O)N7CCc8cnc(-c9cnc%10ccccc%10c9)nc8C7)cc6)cc5)CC4)ccc3C2=O)C(=O)N1` (stereo not shown) [Compound D2-3], for which the IC50 was above 200 µM.

`O=C1CCC(N2C(=O)c3ccc(N4CCN(CC5CCN(CC#Cc6ccc(OCC78CC(C(=O)N9CCc%10cnc(-c%11cnc%12ccccc%12c%11)nc%10C9)(C7)C8)cc6)CC5)CC4)cc3C2=O)C(=O)N1` (stereo not shown) [Compound F1B-4]: the IC50 was 1 to 10 µM.

`CNc1nc(-c2cnc3ccccc3c2)nc2c1CCN(C(=O)c1ccc(/C=C/c3ccc(C#CCN4CCN(CCCCCc5cccc6c5CN(C5CCC(=O)NC5=O)C6=O)CC4)cc3)cc1)C2` (stereo not shown) [Compound C1-4]: the IC50 is 1 to 10 µM.

As to `C/C=c1/cc(-c2ncc3c(n2)CN(C(=O)c2ccc(/C=C/c4ccc(C#CCN5CCN(CCCCCCc6cccc7c6CN(C6CCC(=O)NC6=O)C7=O)CC5)cc4)cc2)CC3)cn/c1=C/C` (stereo not shown) [Compound C1-2], the IC50 is above 200 µM.

On to `C=Cc1cc(-c2ncc3c(n2)CN(C(=O)c2ccc(COc4ccc(C#CCN5CCN(CCCCCOc6cccc7c6C(=O)N(C6CCC(=O)NC6=O)C7=O)CC5)cc4)nc2)CC3)cnc1C=C` (stereo not shown) [Compound C3-12], for which the IC50 lay within 50 to 100 µM.

On to `O=C1CCC(N2Cc3cc(C4CN(C5CCN(CC#Cc6ccc(OCC78CC(C(=O)N9CCc%10cnc(-c%11cnc%12ccccc%12c%11)nc%10C9)(C7)C8)cc6)CC5)C4)ccc3C2=O)C(=O)N1` (stereo not shown) [Compound F1A-5], for which the IC50 was 1 to 10 µM.

As for `O=C1CCC(N2Cc3c(CN4CC5(CC(N6CCN(CC#Cc7ccc(/C=C/c8ccc(C(=O)N9CCc%10cnc(-c%11cnc%12ccccc%12c%11)nc%10C9)cc8)cc7)CC6)C5)C4)cccc3C2=O)C(=O)N1` (stereo not shown) [Compound F3A-2], the IC50 is 100 to 200 µM.

As to `C=Cc1cc(-c2nc3c(c(NC)n2)CCN(C(=O)c2ccc(COc4ccc(C#CCN5CCN(CCCCCOc6cccc7c6C(=O)N(C6CCC(=O)NC6=O)C7=O)CC5)cc4)cn2)C3)cnc1C=C` (stereo not shown) [Compound C3-11], the IC50 is 100 to 200 µM.

Turning to `O=C1CCC(N2Cc3cc(CN4CC(N5CCN(CC#Cc6ccc(/C=C/c7ccc(C(=O)N8CCc9cnc(-c%10cnc%11ccccc%11c%10)nc9C8)cc7)cc6)CC5)C4)ccc3C2=O)C(=O)N1` (stereo not shown) [Compound F2-2], the IC50 fell in the range of 50 to 100 µM.

Consider `C=Cc1cc(-c2ncc3c(n2)CN(C(=O)c2ccc(/C=C/c4ccc(C#CCN5CCN(CCCCc6ccc7c(c6)CN(C6CCC(=O)NC6=O)C7=O)CC5)cc4)cc2)CC3)cnc1C=C` (stereo not shown) [Compound C1-3], for which the IC50 is 1 to 10 µM.

Turning to `CNc1nc(-c2cnc3ccccc3c2)nc2c1CCN(C(=O)c1ccc(/C=C/c3ccc(C#CCN4CCN(CCCCC#Cc5cccc6c5CN(C5CCC(=O)NC5=O)C6=O)CC4)cc3)cc1)C2` (stereo not shown) [Compound D2-7], the IC50 is 100 to 200 µM.

Regarding `O=C1CCC(N2Cc3c(cccc3N3CC4(CC(CN5CCN(CC#Cc6ccc(/C=C/c7ccc(C(=O)N8CCc9cnc(-c%10cnc%11ccccc%11c%10)nc9C8)cc7)cc6)CC5)C4)C3)C2=O)C(=O)N1` (stereo not shown) [Compound F3A-4], the IC50 was in the range of 100 to 200 µM.
